Counter-ions that a name gives are not always drawn.
How the values were obtained:
Format in all cases: in vivo
[1] = system: Stomoxys calcitrans (stable fly); assay: Adult stable fly test, serum-saturated dental wick; conditions: readings at 24 and 48 hours, which one is reported is not stated; for Percentage of ASF killed at 10 ppm: 10 ppm in bovine serum; for Percentage of ASF killed at 100 ppm: 100 ppm in bovine serum
Method: The compound to be evaluated was dissolved in 1 part acetone/1 part ethanol to provide a stock solution of the compound at a concentration of 5,000 ppm; this solution was shaken for 15 minutes on a sonicator. Portions of the stock solution were placed in 15 ml test tubes, and portions of bovine serum were added to provide the desired dilution of the test compound. A dental wick was placed in each test tube and the serum allowed to saturate the wick.
For the adult stable fly test, the saturated wick was placed on a filter paper in a petri dish, and approximately 10 chilled live, hungry stable flies were placed on the center of the dish bottom. The dish was covered and allowed to incubate at 27°C and 60% relative humidity for 48 hours. Mortality readings were made at each of 24 and 48 hours, and adjusted for any mortality in the vehicle control to determine percent efficacy against adult stable fly.

[2] = system: tobacco budworm (Heliothis virescens); assay: Activity against tobacco budworm (TBW), sprayed diet cups with eggs
Method: (§1) In conducting evaluations of insecticidal activity, each test compound was formulated as a 400 ppm solution, and this solution was then diluted with water to give lesser concentrations. The 400 ppm solution was prepared by combining 19.2 mL of .05% solution of Tween 20 (polyoxyethylene (20) sorbitan monolaurate) in water with a solution of 8 mg of the compound in .8 mL of acetone/EtOH (9/1).
Activity against tobacco budworm (Heliothis virescens) was evaluated as follows. A general purpose lepidoptera artificial diet was diluted to half strength with a 5% non nutritive agar. 8 mL of this diet material was dispensed into each one ounce diet cup. One hour prior to treatment 18 to 20 eggs were dispensed onto the diet surface. The cups were then sprayed with formulated material through a flat-fan nozzle. […] Treated cups were air dried prior to sealing with plastic caps. The cups were held for 6 days at room temperature. Activity was then rated based on the total number of live and dead larvae, and on the size of live larvae.

[3] = system: two spotted spider mite (Tetranychus urticae); assay: Activity against two spotted spider mite (TSSM), sprayed infested squash plants; conditions: RATE 400 (ppm), three days after treatment, 4320 min
Method: as §1
Activity against cotton aphid (Aphis gossypii) and two spotted spider mite (Tetranychus urticae) was evaluated as follows. Golden crookneck squash plants were grown to the expanded cotyledon stage (about 6 to 8 days). The plants were infested with cotton aphids and two spotted spider mites 16 to 24 hours before application of the test material by transfer of infested foliage cut from a stock colony. Immediately prior to spray application of the test material the transfer foliage is removed from the squash plants. The test is run using concentrations of 400 ppm and 50 ppm. The plants are sprayed with test solution using an atomizing sprayer at 17 psi. Both surfaces of the leaves are covered until runoff, and then allowed to dry. Activity of each compound was determined three days after treatment. Activity was rated as a percent based on the mites/aphids present in plants sprayed with solvent alone.

Compound	Percentage of ASF killed at 100 ppm [1]	% MORTALITY ([2]; RATE 400 (ppm), 6 days)	also measured
CC[C@H]1CCC[C@H](O[C@H]2CC[C@H](N(C)C)[C@@H](C)O2)[C@@H](C)C(=O)[C@@H]2C[C@@H]3[C@@H](CC[C@@H]4C[C@@H](O[C@@H]5O[C@@H](C)[C@H](OC)[C@@H](OC)[C@H]5OC)C[C@H]43)[C@@H]2CC(=O)O1 [Example D2, (14R)-5,6,13,14-Tetrahydro Spinosyn A]	100%		Percentage of ASF killed at 10 ppm [1]: <50%
5,6-Dihydro Spinosyn J [Example F21]	100%	100%	
CCC1CCCC(OC2CCC(N(C)C)C(C)O2)C(C)C(=O)C2=CC3C4CC(OC5OC(C)C(OC)C(OC)C5OC)CC4C[C@H](O)C3C2CC(=O)O1 (stereo partly drawn) [Example F15a, (5S)-5,6-dihydro-5-hydroxy Spinosyn A]		100%	
CC[C@H]1CCC[C@H](O[C@H]2CC[C@H](N(C)C)[C@@H](C)O2)[C@@H](C)C(=O)C2=C[C@H]3[C@@H]4C[C@H](O[C@@H]5O[C@@H](C)[C@H](OC)[C@@H](OC)[C@H]5OC)C[C@H]4CC[C@H]3[C@@H]2CC(=O)O1 [Example F23, 5,6-Dihydro Spinosyn A Hemiglutarate salt]	100%	100%	% MORTALITY [3]: 100%
5,6-cis Dihydroxy-5,6-dihydro Spinosyn B [Example F12]	100%	100%	
CCC1CCCC(OC2CCC(N(C)C)C(C)O2)C(C)C(=O)[C@H]2CC3C4CC(OC5OC(C)C(OC)CC5OC)CC4CCC3C2CC(=O)O1 (stereo partly drawn) [Example D3, (14S)-5,6,13,14-Tetrahydro-3'-deoxy Spinosyn J]	100%		% MORTALITY ([2]; RATE 64 (unit not given), 8640 min): 95%
(5R,6R)-5,6-dibromo Spinosyn B [Example F11b]	100%	100%	
CC[C@H]1CCC[C@H](O[C@H]2CCC(=O)[C@@H](C)O2)[C@@H](C)C(=O)C2=C[C@H]3[C@@H]4C[C@H](O[C@@H]5O[C@@H](C)[C@H](OC)[C@@H](OC)[C@H]5OC)C[C@H]4[C@@H](Br)[C@H](Br)[C@H]3[C@@H]2CC(=O)O1 [Example F11a, (5R,6R)-5,6-dibromo-4''-keto Spinosyn A]	<50%		
CC[C@H]1CCC[C@H](O)[C@@H](C)C(=O)C2=C[C@H]3[C@@H]4C[C@H](O[C@@H]5O[C@@H](C)[C@H](OC)[C@@H](OC)[C@H]5OC)C[C@H]4C(Br)C(Br)[C@H]3[C@@H]2CC(=O)O1 (stereo partly shown) [Example F5, 5,6-Dibromo Spinosyn A 17-Psa]			Percentage of ASF killed at 10 ppm [1]: <50%
CCC1CCCC(OC2CCC(N(C)C)C(C)O2)C(C)C(=O)C2=CC3C4CC(OC5OC(C)C(OC)C(OC)C5OC(=O)c5ccc(C(F)(F)F)cc5)CC4[C@@]4(C)O[C@H]4C3C2CC(=O)O1 (stereo partly drawn) [Example A2, (5S,6R)-Epoxy-2'-O-(p-trifluoromethyl)benzoyl Spinosyn Q]	100%	100%	
CCC1CCCC(OC2CCC(N(C)C)C(C)O2)C(C)C(=O)C2=CC3C4CC(OC5OC(C)C(OC)C(OC)C5O)CC4CCC3C2CC(=O)O1 (stereo not shown) [Example F22, 5,6-Dihydro Spinosyn H]	100%	100%	
CCC1CCCC(OC2CCC(N(C)C)C(C)O2)C(C)C(=O)C2=CC3C4CC(O)CC4CCC3C2CC(=O)O1 (stereo not shown) [Example F19, 5,6-Dihydro Spinosyn A 9-Psa]		100%	
5,6-Dihydro Derivative of Compound 9-O-(2,3,4-Tri-O-ethyl-α-L-rhamnosyl) Spinosyn A 9-Psa [Example A1]		100%	% MORTALITY [3]: 100%
CCCOC1C(OC2CC3CCC4C5CC(=O)OC(CC)CCCC(OC6CCC(N(C)C)C(C)O6)C(C)C(=O)C5=CC4C3C2)OC(C)C(OC)C1OC (stereo not shown) [Example A8, 5,6-Dihydro-2'-O-n-propyl Spinosyn H]	100%	100%	% MORTALITY [3]: 100%
CCOC1C(OC2CC3CCC4C5CC(=O)OC(CC)CCCC(OC6CCC(N(C)C)C(C)O6)C(C)C(=O)C5=CC4C3C2)OC(C)C(OC)C1OC (stereo not shown) [Example A7, 5,6-Dihydro-2'-O-ethyl Spinosyn H]	100%	100%	% MORTALITY [3]: 100%
CCOC1C(OC)C(C)OC(OC2CC3CCC4C5CC(=O)OC(CC)CCCC(OC6CCC(N(C)C)C(C)O6)C(C)C(=O)C5=CC4C3C2)C1OC (stereo not shown) [Example A3, 5,6-Dihydro-3'-O-ethyl Spinosyn J]		100%	% MORTALITY [3]: 100%
CCC1CCCC(OC2CCC(N(C)C)C(C)O2)C(C)C(=O)C2=CC3C4CC(OC5OC(C)C(OC)C(OC)C5OC)CC4[C@@H](Br)[C@H](Br)C3C2CC(=O)O1 (stereo partly drawn) [Example F14, (5R,6R)-5,6-Dibromo Spinosyn A]	100%	60%	
dichloroketene acetal of (5S,6R)-5,6-dihydroxy Spinosyn A [Example F13a]		100%	
CC[C@H]1CCC[C@H](O)[C@@H](C)C(=O)C2=C[C@H]3[C@@H]4C[C@H](O[C@@H]5O[C@@H](C)[C@H](OC)[C@@H](OC)[C@H]5OC)C[C@H]4CC[C@H]3[C@@H]2CC(=O)O1 [Example F20, 5,6-Dihydro Spinosyn A 17-Psa]	<50%		
CCCCOC1C(OC)C(C)OC(OC2CC3CCC4C5CC(=O)OC(CC)CCCC(OC6CCC(N(C)C)C(C)O6)C(C)C(=O)C5=CC4C3C2)C1OC (stereo not shown) [Example A5, 5,6-Dihydro-3'-O-n-butyl Spinosyn J]		100%	
CCCOC1C(OC)C(C)OC(OC2CC3CCC4C5CC(=O)OC(CC)CCCC(OC6CCC(N(C)C)C(C)O6)C(C)C(=O)C5=CC4C3C2)C1OC (stereo not shown) [Example A4, 5,6-Dihydro-3'-O-n-propyl Spinosyn J]		100%	% MORTALITY [3]: 100%
CCC1CCCC(OC2CCC(N(C)C)C(C)O2)C(C)C(=O)C2=CC3C4CC(OC5OC(C)C(OC)C(OC)C5OC)CC4[C@@H](OC(=O)C(Cl)(Cl)Cl)[C@@H](OC(=O)C(Cl)(Cl)Cl)C3C2CC(=O)O1 (stereo partly drawn) [Example F13b, (5S,6R)-5,6-bis(trichloroacetoxy) Spinosyn A]		60%	
(5R,6R)-6-Bromo-5-hydroxy Spinosyn J [Example F18]	100%	100%	
CCCOC1C(OC)C(C)OC(OC2CC3CCC4C5CC(=O)OC(CC)CCCC(OC6CCC(N(C)C)C(C)O6)C(C)C(=O)C5=CC4C3C2)C1OC.CCCOC1C(OC)C(C)OC(OC2CC3CCC4C5CC(=O)OC(CC)CCCC(OC6CCC(N(C)C)C(C)O6)C(C)C(=O)C5=CC4C3C2)C1OC.O=C(O)CCCC(=O)O (stereo not shown) [Example A6, 5,6-Dihydro-3'-O-n-propyl Spinosyn J Hemiglutarate salt]	100%	100%	% MORTALITY [3]: 100%
(5S,6R)-Epoxy-Spinosyn Q [Example F25]		100%	
CCC1CCCC(OC2CCC(N(C)C)C(C)O2)C(C)C(=O)C2=CC3C4CC(OC5OC(C)C(OC)C(OC)C5OC)CC4[C@@H](SC)[C@H](OC(C)=O)C3C2CC(=O)O1 (stereo partly drawn) [Example F16, (5R,6R)-5-Acetoxy-6-thiomethoxy Spinosyn A]	100%	100%	
CCC1CCCC(OC2CCC(N(C)C)C(C)O2)C(C)C(=O)C2=CC3C4CC(OC5OC(C)C(OC)C(OC)C5OC)CC4[C@@]4(C)O[C@H]4C3C2CC(=O)O1 (stereo partly drawn) [Example F8a, (5S,6R)-Epoxy Spinosyn D]		100%	% MORTALITY [3]: 90%
CCC1CCCC(O[Si](C)(C)C)C(C)C(=O)C2=CC3C4CC(OC5OC(C)C(OC)C(OC)C5OC)CC4C4OC4C3C2CC(=O)O1 [Example E2, (5S,6R)-5,6-Epoxy-17-O-trimethylsilyl Spinosyn A 17-Psa]			% MORTALITY ([2]; RATE 80 (unit not given), 8640 min): 35%
CCC1CCCC(OC2CCC(N(C)C)C(C)O2)C(C)C(=O)C2=CC3C4CC(OC5OC(C)C(OC)C(OC)C5OC)CC4[C@@H](S(C)(=O)=O)[C@H](OC(C)=O)C3C2CC(=O)O1 (stereo partly drawn) [Example F17, (5R,6R)-5-Acetoxy-6-methylsulfonyl Spinosyn A]	100%	100%	
